IC50 data for four compounds are collected here from patent US6140317A, “Pyrrolopyrimidines and processes for their preparation” (Novartis AG, priority 1996, dated 2000).

Each structure is given as a SMILES string. pIC50: −log10 of the molar value.

Assay [1] deals with T1, EGF-receptor-specific tyrosine protein kinase (EGF-R-PTK; EGF-R ICD) (Homo sapiens, UniProt P00533).
T1 construct: recombinant intracellular domain of the EGF receptor
In words: Inhibition of the EGF-receptor-specific tyrosine kinase (recombinant intracellular domain of the EGF receptor). In kind it is biochemical. The procedure: The compounds of formula I inhibit the enzyme activity in comparison with the control without inhibitor by 50% (IC50), for example in a concentration of from 0.001 to 20 μM, especially from 0.01 to 5 μM.
Inhibition of the EGF-receptor-specific Tyrosine Kinase
In accordance with the method mentioned above and using the recombinant intracellular domain of the EGF receptor (Europ. J. Biochem. 207, 265-275 (1992)), the following IC50 values are obtained: […]

The subject of assay [2] is BALB/MK cells. In words: Inhibition of the growth of BALB/MK (mouse keratinocyte) cells in vitro, methylene blue staining. Format: cell-based. To be noted: 72 h, incubated for three days. The procedure: In a known test method (see Meyer et al., Int. J. Cancer 43, 851 (1989)) the inhibitory action of the compounds of formula I is determined briefly as follows: BALB/MK cells (10 000/microtiter plate well) are transferred to 96-well microtiter plates. The test compounds (dissolved in DMSO) are added in a series of concentrations (dilution series), so that the final concentration of DMSO is no greater than 1% (v/v). After the addition, the plates are incubated for three days, during which time the control cultures without test compound are able to undergo at least three cell division cycles. The growth of the MK cells is measured by means of methylene blue staining: after the incubation the cells are fixed with glutaraldehyde, washed with water and stained with 0.05% methylene blue. After a washing step, the stain is eluted with 3% HCl and the optical density per well of the microtitre plate is measured using a Titertek multiskan at 665 nm. IC50 values are determined by means of a computer-aided system using the formula
IC50 =[(ODtest -ODstart)/(ODcontrol
The IC50 value in those experiments is defined as that concentration of the test compound in question which results in a 50% decrease in the number of cells in comparison with the control without inhibitor.
The growth of BALB/MK cells in the presence of compounds of formula I is tested in accordance with the procedure described above. […]

Assay [3] addresses v-abl kinase (Abelson murine leukemia virus, UniProt P00521). In words: Inhibition of the v-abl kinase ([Val5]-angiotensin II and [gamma-32P]-ATP as substrates). Format: biochemical. To be noted: v-abl tyrosine kinase. The procedure: The above-mentioned inhibition of the v-abl tyrosine kinase is determined in accordance with the methods of N. Lydon et at, Oncogene Research 5, 161-173 (1990) and J. F. Geissler et al., Cancer Research 52, 4492-4498 (1992), with [Val^5 ]-angiotensin II and [γ -^32 P]-ATP being used as substrates.
In accordance with the procedure mentioned above (Oncogene Research 5, 161-173 (1990) and Cancer Research 52, 4492-4498 (1992), the following IC50 values are obtained: […]

T1 sequence (P00533 669-1210 limits assumed): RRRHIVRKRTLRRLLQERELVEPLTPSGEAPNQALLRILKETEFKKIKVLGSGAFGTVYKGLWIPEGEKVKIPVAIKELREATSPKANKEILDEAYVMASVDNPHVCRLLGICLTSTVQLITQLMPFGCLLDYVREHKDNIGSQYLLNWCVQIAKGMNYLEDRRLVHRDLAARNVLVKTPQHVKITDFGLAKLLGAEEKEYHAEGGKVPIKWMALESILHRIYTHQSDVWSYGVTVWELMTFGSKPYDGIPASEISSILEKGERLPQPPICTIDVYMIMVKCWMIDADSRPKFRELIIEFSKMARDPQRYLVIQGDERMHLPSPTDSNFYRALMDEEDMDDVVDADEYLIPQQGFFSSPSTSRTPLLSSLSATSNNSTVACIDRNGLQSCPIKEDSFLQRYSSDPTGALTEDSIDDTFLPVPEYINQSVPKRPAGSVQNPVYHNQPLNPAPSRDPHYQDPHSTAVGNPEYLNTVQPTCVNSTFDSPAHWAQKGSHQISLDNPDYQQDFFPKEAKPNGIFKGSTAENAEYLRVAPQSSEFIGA
v-abl kinase, sequence (P00521 whole entry): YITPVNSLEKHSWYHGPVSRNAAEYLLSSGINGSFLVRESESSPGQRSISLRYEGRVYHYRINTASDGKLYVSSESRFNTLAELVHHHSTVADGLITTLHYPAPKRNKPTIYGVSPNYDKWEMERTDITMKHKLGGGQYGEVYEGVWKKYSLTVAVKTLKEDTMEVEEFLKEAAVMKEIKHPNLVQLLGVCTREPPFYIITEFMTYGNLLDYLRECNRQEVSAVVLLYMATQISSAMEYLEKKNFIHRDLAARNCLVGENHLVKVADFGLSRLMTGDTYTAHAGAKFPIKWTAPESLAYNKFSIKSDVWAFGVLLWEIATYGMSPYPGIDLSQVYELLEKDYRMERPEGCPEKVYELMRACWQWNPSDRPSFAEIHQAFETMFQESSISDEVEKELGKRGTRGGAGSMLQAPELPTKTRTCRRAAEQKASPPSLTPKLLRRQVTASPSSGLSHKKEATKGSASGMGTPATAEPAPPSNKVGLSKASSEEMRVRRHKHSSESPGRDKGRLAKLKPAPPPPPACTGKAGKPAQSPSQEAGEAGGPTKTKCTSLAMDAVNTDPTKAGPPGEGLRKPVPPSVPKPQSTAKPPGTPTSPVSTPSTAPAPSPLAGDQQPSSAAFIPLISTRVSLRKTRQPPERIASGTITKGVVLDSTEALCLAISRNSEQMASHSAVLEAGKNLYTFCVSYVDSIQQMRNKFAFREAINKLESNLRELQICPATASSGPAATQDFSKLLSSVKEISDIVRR

As to `Cc1[nH]c2ncnc(N3CCc4ccccc43)c2c1C` [Example 1, 4-(2,3-Dihydroindol-1-yl)-5,6-dimethyl-7H-pyrrolo[2,3-d]pyrimidine], the pIC50 – broadly, the negative decadic logarithm of the IC50, by convention in mol/L – in assay [1] was 5.81.
Turning to `Cc1[nH]c2ncnc(N3CCCc4ccccc43)c2c1C` [Example 5, 4-(1,2,3,4-Tetrahydroquinolin-1-yl)-5,6-dimethyl-7H-pyrrolo[2,3-d]pyrimidine], the pIC50 in assay [1] was 5.57.
Consider `Nc1ccc(-c2cc3c(N4CCc5ccccc54)ncnc3[nH]2)cc1` [Example 7, 4-(2,3-Dihydroindol-1-yl)-6-(4-amino-phenyl)-7H-pyrrolo[2,3-d]pyrimidine], for which the pIC50 in assay [1] was 6.68; in assay [2] it was 4.80; in assay [3] it was 7.11.
As for `Nc1ccc(-c2cc3c(N4CCCc5ccccc54)ncnc3[nH]2)cc1` [Example 11, 4-(1,2,3,4-Tetrahydroquinolin-1-yl)-6-(4amino-phenyl)-7H-pyrrolo[2.3-d]-pyrimidine], the pIC50 in assay [1] was 7.59; in assay [2], 6.12; in assay [3] it was 8.70.
